Read-outs that look alike come from different tables or passages of the source.
Experiments:
human T lymphocytes = assay: Cytotoxicity of the products for human T lymphocytes; assay type: cell-based
Protocol: (§1) Each product was dissolved in DMSO at a concentration of 10^-3 M (stock solution), then in the culture medium immediately before use. The solution thus obtained was sterilized by filtration on a 0.22μ Millipore, then successive dilutions were made in the culture medium.
The cultures of human T lymphocytes are maintained in the medium RPMI 1640 containing 10% fetal calf serum (Seromeal), 1% of glummine (Gibco), 1% of antibiotics (PSN, Gibco), 10% of interleukin II (Biotest), 2 μg/ml of polybrene (Sigma) and a 1/2500 dilution of α-human semm-interferon. This medium is called complete medium.
The cytotoxicity of the products was studied on human T lymphocytes obtained from peripheral blood of a sero-negative donor. Prior to the treatment, these lymphocytes are stimulated by phytohemagglutinin p (pHAp) (Difco) for 3 days.
a) Study of the cytotoxicity of the products for the T cells.
10^6 lymphocytes stimulated by pHAp were treated for 10 days by increasing doses of the product (10^-5 M; 5×10^-6 M; 10^-6 M). The product was added at each cell passage carried out every 3 or 4 days. At each passage, the cells were counted after staining with trypan blue then resuspended at 10^6 cells per ml in the complete medium containing or not increasing doses of the product. This experiment was carried out in a plate with 24 wells (Munc).

HIV-1 virus [1] = assay: Effect of the products on the infectious potency of the HIV-1 virus in human T lymphocytes (reverse transcriptase activity); assay type: cell-based, HIV-1 virus (LAV strain); conditions: treatment after viral absorption (FIG. 2)
Protocol: as §1
The cultures of human T lymphocytes are maintained in the medium RPMI 1640 containing 10% fetal calf serum (Seromeal), 1% of glummine (Gibco), 1% of antibiotics (PSN, Gibco), 10% of interleukin II (Biotest), 2 μg/ml of polybrene (Sigma) and a 1/2500 dilution of α-human semm-interferon. This medium is called complete medium. […]
Human lymphocytes stimulated beforehand by means of pHAp were infected by the HIV-1 virus (reverse transcriptase activity: 5000 cmp/10^6 cells). […] The viral production was monitored at each passage (and this for 13 days) by measuring the reverse transcriptase activity present in 1 ml of culture supernatant. […]
The production of the HIV-1 virus by human T cells treated or not by each product was regularly monitored by measuring the reverse transcriptase activity present in 1 ml of culture supernatant. […] After 1 hour of incubation of 37° C., the acid-insoluble products are precipitated by 20% trichloroacetic acid, filtered on 0.45μ Millipore, then the β radioactivity contained in these reaction products is measured with the aid of a Kontron scintillation counter.

HIV-1 virus [2] = assay: Action of the products on the cytopathogenic effect of the HIV-1 virus in MT4 cells; assay type: cell-based, HIV-1 virus (LAV strain); conditions: for minimal effective concentration: Human immunodeficiency virus 1, MT4, 168 h
Protocol: as §1
The line of MT4 cells is cultivated at a concentration of 3×10^5 cells/ml in a RPM1640 medium containing 10% of fetal calf serum, 1% of antibiotics and 1% of glummine.
The action of the products on the cytopathogenic effect of the HIV-1 virus was studied with the aid of the line of MT4 cells. This line is a line of human T cells transformed by the HTLV-1 virus. These cells are particularly sensitive to the HIV-1 virus since 6 to 7 days after superinfection by tiny quantities of HIV-1 virus, they show a considerable cytopathogenic effect leading to the death of 10 to 80% of the cells. The cytopathogenic effect is directly correlated with the infection of the cells by the virus, with its intracellular replication and with the expression of the viral antigens by the cells. An inhibition of this effect thus corresponds to an inhibition of the multiplication of the HIV-1 virus.
It is a question of supernatants of lymphoblastoid T cells (CEM line) infected by the HIV-1 virus (LAV strain). The activity of the undiluted viral preparation used for the human lymphocytes was 20000 cpm/ml.
d) Action of the products on the cytopathogenic effect of the HIV-1 virus in the case of the MT4 cells. Study of the treatment after viral absorption.
The MT4 cells were infected by 100 μl of HIV-1 virus for 3.10^5 cells in a volume of 1 ml. […]
At day +3, the cell suspensions were restored to 3.10^5 cells/ml after dilution with fresh medium. The product was added at the corresponding doses.
At day +7, the cytopathogenic effect was evaluated with the microscope after staining with trypan blue.

Compound | effect on cell multiplication (human T lymphocytes; same doses, 3 days) | inhibition of the multiplication of the virus (HIV-1 virus [1]; dose proportional) | Cytopathogenic Effect at Day +7 (HIV-1 virus [2]; 5 × 10^-6 M, Experiment No. 2) | Cytopathogenic Effect at Day +7 (HIV-1 virus [2]; 10^-5 M, Experiment No. 2) | Cytopathogenic Effect at Day +7 (HIV-1 virus [2]; 10^-6 M, Experiment No. 2) | minimal effective concentration (HIV-1 virus [2]; read-out: concentration at which the product inhibits the cytopathogenic potency of the virus) | effect on the growth of T cells (human T lymphocytes; treatment of 10 days, at the doses used (FIG. 1)) | inhibition of the multiplication of the virus (HIV-1 virus [1]; 10^-5 M) | Cytopathogenic Effect at Day +7 (HIV-1 virus [2]; 5 × 10^-6 M, Experiment No. 1) | Cytopathogenic Effect at Day +7 (HIV-1 virus [2]; 5 × 10^-7 M, Experiment No. 1) | Cytopathogenic Effect at Day +7 (HIV-1 virus [2]; 5 × 10^-7 M, Experiment No. 2) | Cytopathogenic Effect at Day +7 (HIV-1 virus [2]; 10^-5 M, Experiment No. 1) | Cytopathogenic Effect at Day +7 (HIV-1 virus [2]; 10^-6 M, Experiment No. 1) | minimal effective concentration (HIV-1 virus [2]; first experiment, MT4 cells, read-out: concentration at which the product inhibits the cytopathogenic effect) | minimal effective concentration (HIV-1 virus [2]; second experiment, MT4 cells, read-out: concentration at which the product inhibits the cytopathogenic effect)
Cc1cn([C@H]2CC[C@@H](COP(=O)(O)OC[C@H]3OC(O)[C@H](O)[C@@H](O)[C@@H]3O)O2)c(=O)[nH]c1=O (stereo partly drawn) [compound 6714, 6-glucosyl 5'-(3'-deoxy)-thymidinyl phosphate] | no effect is observed on cell multiplication | partial inhibition proportional to the dose of the product used | + (100% death of the cells at day +7) | - | + (100% death of the cells at day +7) | 10 µM |  |  |  |  |  |  |  |  | 
CCCCCCCCCCCCCCCCOP(=O)(OC[C@H]1OC(O)[C@H](O)[C@@H](O)[C@@H]1O)OC[C@H]1O[C@@H](n2cc(C)c(=O)[nH]c2=O)C[C@@H]1N=[N+]=[N-] (stereo partly drawn) [compound 6651, 6-glucosyl hexadecyl 5'-(3'-azido) thymidinyl phosphate] |  |  | + (100% death of the cells at day +7) | - | + (100% death of the cells at day +7) |  | without significant effect on the growth of T cells | total inhibition of the multiplication of the virus | - | + (100% death of the cells at day +7) | + (100% death of the cells at day +7) | - | - | 1 µM | 10 µM

Reference: patent publication US5393744A, “Glucosyl phosphotriesters of thymidine” (Institut Pasteur, priority 1988, dated 1995)
